In patent publication US20160257710A1, “SELECTIVE INHIBITORS OF PROTEINASE 3” (INSERM (INSTITUT NATIONAL DE LA SANTÉ ET LA RECHERCHE …, priority 2013, published 2016):
Where a chain is given by its changes, count along the chain named. The star is where a group is joined. EDDnp = O=[N+]([O-])c1ccc(NCCN*)c([N+](=O)[O-])c1

Legend:
Type in all cases: biochemical
PR3 = molecular target: T1, PR3 (Homo sapiens, UniProt P24158); assay: Inhibition of protease activity in crude lung secretions of patients (IPF, cystic fibrosis); conditions: 30 min incubation, IPF and CF samples
T1 construct: in a lysate of purified human neutrophils; endogenous in cells; host or cells: purified human neutrophils (lysate)
T1 sequence (P24158 28-248): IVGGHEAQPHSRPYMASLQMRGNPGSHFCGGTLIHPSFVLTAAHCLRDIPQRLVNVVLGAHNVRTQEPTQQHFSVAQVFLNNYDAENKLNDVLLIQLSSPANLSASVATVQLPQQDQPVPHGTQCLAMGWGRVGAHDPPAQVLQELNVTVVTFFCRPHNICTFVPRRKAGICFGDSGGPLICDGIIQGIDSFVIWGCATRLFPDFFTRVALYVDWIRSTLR
Description: Crude lung secretions of patients with chronic inflammatory disorders associating significant neutrophil recruitment (IPF, Cystic fibrosis) were used as biological material to assay the efficacy of phosphonate inhibitors. We first measured the rate of cleavage of the PR3 substrate in >3 IPF and >3 CF crude samples before and after incubation with compounds 2 and 4 (×μM final). All crude samples cleaved the PR3 substrate in the absence of inhibitor and the cleavage always occurred at the expected bond, i.e. the cleavage bond of PR3, as checked by HPLC. The PR3 concentration was in the 0.1-1 μM range in lung secretions, based on the rate of substrate hydrolysis. […] Further, the rate of PR3 inactivation in a crude biological sample […] that of purified PR3, which means that there is no adverse effect impairing the PR3 inhibition in lung secretions of patients with inflammatory disorders.

Elastase = molecular target: T2, Elastase (Homo sapiens, UniProt P08246); assay: Protease inhibition assay, second order rate constant kobs/[I] (method of Tian and Tsou); conditions: n.s where no significant inhibition
T2 sequence (P08246 30-267): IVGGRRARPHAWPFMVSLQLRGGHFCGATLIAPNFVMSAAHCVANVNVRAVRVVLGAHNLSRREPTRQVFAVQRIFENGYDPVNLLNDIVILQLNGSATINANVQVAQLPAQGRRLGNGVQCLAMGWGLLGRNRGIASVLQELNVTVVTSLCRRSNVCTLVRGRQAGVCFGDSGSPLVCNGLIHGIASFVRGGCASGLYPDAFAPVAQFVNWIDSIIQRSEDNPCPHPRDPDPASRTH
Description: (§1) The inactivation of proteases by substrate analog inhibitors in the presence of the substrate by competition for the enzyme-binding site, was measured by the method of Tian and Tsou (17). In this system, product formation in the presence of an irreversible inhibitor approaches an asymptote, as described by
(§2) log([P∞]−[P])=log [P∞]−0.43A[Y]t
(§3) where [P∞] is the concentration of product formed at time approaching infinity, [P] is the concentration of product at time t, [Y] is the inhibitor concentration, and A is the apparent inhibition rate constant in the presence of the substrate. A is given by
(§4) where k+0 is the rate constant for association of the inhibitor with the enzyme, K^−1 is the inverted Michaelis constant, and [S] the substrate concentration. The apparent inhibition rate constant A is the slope of a plot of log([P∞]−[P]) against t, to give the second-order rate constant of inhibition k+0

HNE = molecular target: T3, HNE (Homo sapiens, UniProt P08246); assay: Inhibition of protease activity in crude lung secretions of patients (IPF, cystic fibrosis); conditions: 30 min incubation, IPF and CF samples
T3 sequence (P08246 30-267): T2 sequence (P08246 30-267)

CatG = molecular target: T4, CatG (Homo sapiens, UniProt P08311); assay: as above; conditions: 30 min incubation, IPF and CF samples
T4 sequence (P08311 21-244): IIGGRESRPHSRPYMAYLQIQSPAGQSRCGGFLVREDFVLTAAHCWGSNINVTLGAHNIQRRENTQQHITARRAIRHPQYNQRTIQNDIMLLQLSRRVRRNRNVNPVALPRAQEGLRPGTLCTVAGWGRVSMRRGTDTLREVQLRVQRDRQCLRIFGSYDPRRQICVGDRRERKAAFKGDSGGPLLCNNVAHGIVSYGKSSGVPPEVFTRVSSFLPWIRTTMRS

Proteinase 3 = molecular target: T5, Proteinase 3 (Homo sapiens, UniProt P24158); assay: Protease inhibition assay, second order rate constant kobs/[I] (method of Tian and Tsou)
T5 sequence (P24158 28-248): T1 sequence (P24158 28-248)
Description: The compounds of the invention are advantageously selective inhibitors of PR3. […] As described under the Examples below (see PR3 inhibition assay), and as is generally known, efficacy of particular inhibitors against a target protease, for example, recombinant human PR3, is determined by combining the target with a substrate (for example Suc-AanV-SBzI), both in the absence of the inhibitor and in the present of different concentrations of such inhibitor to be tested. Typically, the efficacy of irreversible inhibitors are measured in terms of the second order rate constant of inhibition value (11) or kobs/l. Preferred inhibitors of the invention have typically a kobs/I of more than 10 M^−1s^−1, preferably more than 100 M^−1s^−1, and more preferably of more than […].
as §1, §2, §3, §4

wtPR3 = molecular target: T6, wtPR3 (Homo sapiens, UniProt P24158); assay: Hydrolysis of FRET substrates, specificity constant kcat/KM
T6 sequence (P24158 28-248): T1 sequence (P24158 28-248)
Description: (§5) Another critical difference between the two proteases is the replacement of a charged arginyl residue at position 217 in HNE by an Ile in PR3 in the vicinity of the S4 subsite. We investigated the importance of the S4 subsite in PR3 by producing two recombinant PR3 molecules with a […] substitution at position 99 (PR3K99L) and an Ile for Arg substitution at position 217 (PR3I217R). Wild type and recombinant PR3 were then assayed with FRET substrates derived from the PR3/NE substrate Abz-QPMAVVQSVPQ-EDDnp, and bearing either a negatively charged residue (Abz-QDMAVVQSVPQ-EDDnp) or a positively charged residue (QKMAVVQSVPQ-EDDnp) at P4. Wild type and recombinant proteases all cleave the original substrate at the V—V bond with about the same kcat/Km (Table 2).
We observed that a large panel of amino acid residues could be accommodated at the PR3 P3 subsite using a series of FRET substrates but a Tyr was preferred at this position (Table 3).

PR3I217R = molecular target: T7, PR3I217R (Homo sapiens, UniProt P24158, I221R); assay: as above
T7 construct: made in house; host or cells: Drosophila S2 cells
T7 sequence (P24158 28-248 I221R limits assumed): T1 sequence (P24158 28-248) with I194R
Description: (§6) Recombinant PR3K99L and […] were produced in Drosophila S2 cells using the calcium phosphate method, and stable cell lines were selected using puromycin. Proteins were purified by affinity chromatography on Chelating Sepharose and analyzed by SDS-PAGE. The total protein concentration was determined with a BCA Protein Assay
as §5

PR3K99L = molecular target: T8, PR3K99L (Homo sapiens, UniProt P24158, K115L); assay: as above
T8 construct: made in house; host or cells: Drosophila S2 cells
T8 sequence (P24158 28-248 K115L limits assumed): T1 sequence (P24158 28-248) with K88L
Description: as §6, §5

Substance	hydrolysis of PR3 substrate in crude lung secretions (PR3)	Elastase kobs/[I] (Elastase)	HNE activity in crude lung secretions (HNE)	CatG activity in crude lung secretions (CatG)	Proteinase 3 kobs/[I] (Proteinase 3) [M⁻¹ s⁻¹]	kobs/I range (Proteinase 3; PR3)	factor of decrease of kcat/Km versus original substrate, wtPR3 (wtPR3)	factor of increase of kcat/Km versus original substrate, PR3I217R (PR3I217R) [times]	cleavage by PR3K99L (PR3K99L)
Biotin-Pro-Tyr-Asp-Ala^P(O—C6H4-4-Cl)2 [Compound 4]	total inhibition	n.s	remained unchanged	remained unchanged	4168 ± 553	~10^3 M^−1s^−1			
ABZ-Gln-Asp-Met-Ala-Val-Val-Gln-Ser-Val-Pro-Gln-EDDnp (Abz-QDMAVVQSVPQ-EDDnp) [FRET substrate with negatively charged residue at P4]							3	6	completely resists cleavage
